Data set [1] has as its target Cyclin-dependent kinase 5/CDK5 activator 1 (Homo sapiens, UniProt Q00535). Description: Inhibition of human CDK5/p35 activity using Ser/Thr 12 peptide as substrate by FRET assay. It counts as protein-complex assay.
The species named for data set [2] is Danio rerio. Description: Toxicity in 8 to 15 -somite stage zebrafish embryo assessed as deformation in fish tail formation at 100 uM after 18 to 25 hrs. In kind it is organism-based. The settings on record: in vivo.
The species entered for data set [3] is Danio rerio. Nature of the data set: Toxicity in 8 to 15 -somite stage zebrafish embryo after 18 to 25 hrs. It counts as organism-based. As to conditions: in vivo.
Data set [4] has as its target T1, Glycogen synthase kinase-3 beta (Homo sapiens, UniProt P49841). Description: Inhibition of GSK3-beta assessed as [32P]gamma-ATP incorporation into substrate at 10 uM after 15 mins by gamma counting; values are per cent of control.
Target sequence in this assay (P49841 whole entry, looked up): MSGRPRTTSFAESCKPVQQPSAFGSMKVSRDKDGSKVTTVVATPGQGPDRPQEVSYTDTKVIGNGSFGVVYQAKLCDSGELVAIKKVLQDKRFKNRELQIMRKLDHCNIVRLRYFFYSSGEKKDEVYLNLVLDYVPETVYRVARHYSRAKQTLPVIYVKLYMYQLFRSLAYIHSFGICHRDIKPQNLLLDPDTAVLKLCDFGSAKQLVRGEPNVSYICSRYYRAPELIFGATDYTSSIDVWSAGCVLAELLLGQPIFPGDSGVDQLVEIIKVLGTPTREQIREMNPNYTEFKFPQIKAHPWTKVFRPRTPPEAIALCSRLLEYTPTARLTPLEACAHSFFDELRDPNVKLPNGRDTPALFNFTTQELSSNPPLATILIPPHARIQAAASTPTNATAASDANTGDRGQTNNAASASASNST
Data set [5] concerns the target T1, Glycogen synthase kinase-3 beta. Nature of the data set: Inhibition of human GSK3-beta activity using Ser/Thr 9 peptide as substrate by FRET assay.
Target sequence in this assay (P49841 whole entry): as the sequence (P49841 whole entry, looked up) above
Data set [6] is filed under the species Danio rerio. Description: Toxicity in 8 to 15 -somite stage zebrafish embryo assessed as swimming movements in circles at 100 uM after 18 to 25 hrs. In kind it is organism-based. The settings on record: in vivo.
In data set [7] the target is Protein kinase C alpha type (Homo sapiens, UniProt P17252). Description: Inhibition of human PKCalpha activity using Ser/Thr 7 peptide as substrate by FRET assay.
The next data set has as its target T2, Aurora kinase A (Homo sapiens, UniProt O14965).
T2 sequence (O14965 whole entry): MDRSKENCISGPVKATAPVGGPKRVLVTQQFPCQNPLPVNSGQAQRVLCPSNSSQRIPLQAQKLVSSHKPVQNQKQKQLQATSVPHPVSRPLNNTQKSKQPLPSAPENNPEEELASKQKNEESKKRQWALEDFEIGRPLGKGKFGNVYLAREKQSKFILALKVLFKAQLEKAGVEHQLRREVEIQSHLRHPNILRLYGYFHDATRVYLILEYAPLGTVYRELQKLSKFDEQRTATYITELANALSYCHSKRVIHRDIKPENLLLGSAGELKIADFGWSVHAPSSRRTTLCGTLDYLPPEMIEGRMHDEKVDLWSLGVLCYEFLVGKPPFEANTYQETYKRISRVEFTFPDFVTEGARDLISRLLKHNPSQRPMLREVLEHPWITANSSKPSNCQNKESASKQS
Nature of the data set: Inhibition of human AURKA activity using Ser/Thr 1 peptide as substrate by FRET assay.

Data set [8] has as its target Glycogen synthase kinase-3 alpha (Homo sapiens, UniProt P49840). Nature of the data set: Inhibition of human GSK3alpha activity using Ser/Thr 11 peptide as substrate by FRET assay.
The target of data set [9] is T1, Glycogen synthase kinase-3 beta. Description: Inhibition of GSK3-beta assessed as [32P]gamma-ATP incorporation into substrate at 1 uM after 15 mins by gamma counting; values are per cent of control.
Target sequence in this assay (P49841 whole entry, looked up): as the sequence (P49841 whole entry, looked up) above
The target of data set [10] is Casein kinase I isoform epsilon (Homo sapiens, UniProt P49674). Nature of the data set: Inhibition of human CKI epsilon activity using Ser/Thr 11 peptide as substrate by FRET assay.
Data set [11] is filed under the species Danio rerio. Description: Toxicity in 8 to 15 -somite stage zebrafish embryo assessed as swimming movements in circles at 25 uM after 18 to 25 hrs. It counts as organism-based. As to conditions: in vivo.
Data set [12] is filed under the species Danio rerio. Description: Toxicity in 8 to 15 -somite stage zebrafish embryo assessed as deformation in fish tail formation at 25 uM after 18 to 25 hrs. It counts as organism-based. The settings on record: in vivo.

This passage reports IC50, Activity and residual activity results from ChEMBL document CHEMBL1821663, “Synthesis and biological evaluation of glycogen synthase kinase 3 (GSK-3) inhibitors: an fast and atom efficient access to 1-aryl-3-benzylureas” (Bioorg Med Chem Lett, 2011).

Sequence of Cyclin-dependent kinase 5/CDK5 activator 1 (Q00535 whole entry): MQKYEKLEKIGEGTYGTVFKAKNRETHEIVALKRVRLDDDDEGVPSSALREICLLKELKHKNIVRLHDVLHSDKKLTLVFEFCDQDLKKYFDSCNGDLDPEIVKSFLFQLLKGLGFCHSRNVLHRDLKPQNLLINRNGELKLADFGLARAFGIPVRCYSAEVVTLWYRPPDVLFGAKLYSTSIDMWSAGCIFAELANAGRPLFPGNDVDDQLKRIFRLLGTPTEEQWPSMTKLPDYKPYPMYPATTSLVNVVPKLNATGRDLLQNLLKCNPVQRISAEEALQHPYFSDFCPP
Sequence of Cyclin-dependent kinase 5/CDK5 activator 1 (Q15078 whole entry, further chain): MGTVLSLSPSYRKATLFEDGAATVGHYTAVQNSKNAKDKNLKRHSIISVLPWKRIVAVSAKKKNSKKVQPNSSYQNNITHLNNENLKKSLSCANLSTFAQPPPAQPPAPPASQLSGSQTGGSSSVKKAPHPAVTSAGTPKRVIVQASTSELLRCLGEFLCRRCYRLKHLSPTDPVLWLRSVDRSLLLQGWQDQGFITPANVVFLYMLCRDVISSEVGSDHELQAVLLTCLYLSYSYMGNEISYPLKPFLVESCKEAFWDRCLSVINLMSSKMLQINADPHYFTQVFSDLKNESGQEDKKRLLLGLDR
Sequence of Casein kinase I isoform epsilon (P49674 whole entry, canonical isoform): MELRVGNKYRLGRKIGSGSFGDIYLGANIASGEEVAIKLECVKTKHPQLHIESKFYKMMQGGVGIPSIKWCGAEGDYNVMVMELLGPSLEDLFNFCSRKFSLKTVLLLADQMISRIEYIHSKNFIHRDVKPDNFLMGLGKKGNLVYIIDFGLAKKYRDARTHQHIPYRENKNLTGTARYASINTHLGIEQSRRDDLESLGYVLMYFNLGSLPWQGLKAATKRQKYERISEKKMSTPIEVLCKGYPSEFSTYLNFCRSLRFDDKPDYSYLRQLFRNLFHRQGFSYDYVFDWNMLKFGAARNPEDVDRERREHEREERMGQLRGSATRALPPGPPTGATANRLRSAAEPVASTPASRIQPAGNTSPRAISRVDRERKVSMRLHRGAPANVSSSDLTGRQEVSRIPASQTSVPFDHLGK
Sequence of Glycogen synthase kinase-3 alpha (P49840 whole entry): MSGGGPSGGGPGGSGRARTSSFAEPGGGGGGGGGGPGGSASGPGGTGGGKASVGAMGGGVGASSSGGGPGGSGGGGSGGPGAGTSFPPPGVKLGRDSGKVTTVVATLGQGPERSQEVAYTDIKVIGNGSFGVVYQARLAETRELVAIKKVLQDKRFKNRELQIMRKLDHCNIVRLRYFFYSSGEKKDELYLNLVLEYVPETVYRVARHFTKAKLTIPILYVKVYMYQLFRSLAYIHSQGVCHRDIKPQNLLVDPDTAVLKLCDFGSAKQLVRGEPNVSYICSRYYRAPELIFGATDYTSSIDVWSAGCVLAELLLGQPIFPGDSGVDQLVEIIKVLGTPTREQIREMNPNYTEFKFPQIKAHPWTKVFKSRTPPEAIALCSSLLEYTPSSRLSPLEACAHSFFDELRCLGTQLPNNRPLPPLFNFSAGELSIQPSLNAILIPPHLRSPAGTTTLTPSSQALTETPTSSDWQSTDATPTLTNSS

Take `COc1ccc(CNC(=O)Nc2cc(-c3nnn[nH]3)ccn2)cc1`: the IC50 in data set [1] was above 100 µM; in [5] it was 0.51 µM; in data set [7] it was above 100 µM; against Aurora kinase A it was above 100 µM; in [8], 0.37 µM; in data set [10], above 100 µM. The Activity result is on record as “Toxic” in the data set filed under Danio rerio [2], “Non-toxic” in the data set filed under Danio rerio [3] and “Toxic” in the data set listed under Danio rerio [6]. Besides, the residual activity in data set [4] stood at 24%; in data set [9], 82%.
For the molecule `Nc1nc(NCCNc2ncc(-c3ncc[nH]3)c(-c3ccc(Cl)cc3Cl)n2)ccc1[N+](=O)[O-]`, the Activity entry is reported as “Toxic” in the data set filed under Danio rerio [11], “Non-toxic” in the data set filed under Danio rerio [3] and “Toxic” in the data set filed under Danio rerio [12].
For `COc1ccc(CNC(=O)Nc2ccc([N+](=O)[O-])cn2)cc1`, the results for the residual activity in [4] and in [9] were 31% and 75%, respectively.
Regarding `COc1ccc(CNC(=O)Nc2nc3ccc(C#N)cc3s2)cc1`, the residual activity in data set [4] worked out at 24%; in data set [9], 57%.
Regarding `COc1ccc(CNC(=O)Nc2ncc([N+](=O)[O-])s2)cc1`, in the data set filed under Danio rerio [3], the Activity result was “Toxic”. For the same molecule, the residual activity is 20% in data set [4] and 55% in data set [9]. For the same molecule, the IC50 in data set [7] and in data set [10] was above 100 µM in each case.
Consider `COc1ccc(CNC(=O)Nc2ccc(C#N)cn2)cc1`, for which the figures for the residual activity in [4] and in data set [9] were 40% and 79%, respectively.
Regarding `CCOC(=O)c1sc(NC(=O)NCc2ccc(F)cc2)nc1C`, the Activity entry in the data set filed under Danio rerio [3] is on record as “Non-toxic”.
Take `COc1ccc(CNC(=O)Nc2cc(C#N)ccn2)cc1`: the IC50 in data set [1] was above 100 µM; in data set [5], 1.43 µM; in data set [7], above 100 µM; on Aurora kinase A it was above 100 µM; in data set [8], 1.12 µM; in data set [10], above 100 µM. Also, the results for the residual activity in data set [4] and in [9] were 42% and 101%, respectively.
With `COc1ccc(CNC(=O)Nc2cc(-c3cccnc3F)ccn2)cc1`, in data set [4], the residual activity was determined as 12%. This molecule registered an IC50 in data set [5] of 0.098 µM.
On to `COc1ccc(CNC(=O)Nc2cc(-c3ccccc3OC)ccn2)cc1`, for which the residual activity in data set [4] turned out to be 32%; in data set [9], 91%.
On to `COc1ccc(CNC(=O)Nc2nc3ccc([N+](=O)[O-])cc3s2)cc1`, for which the IC50 is above 100 µM in data set [1]; 3.64 µM in [5]; above 100 µM in data set [7]; above 100 µM at Aurora kinase A; 0.22 µM in [8]; above 100 µM in [10].
`COc1ccc(CNC(=O)Nc2nc3ccc(-c4nnn[nH]4)cc3s2)cc1`: the IC50 is 26.4 µM in [1]; 0.14 µM in data set [5]; 24.2 µM in [7]; 4.8 µM against Aurora kinase A; 0.13 µM in data set [8]; 15.3 µM in data set [10]. The Activity entry in the data set listed under Danio rerio [2] is “Toxic”; in the data set listed under Danio rerio [3], “Non-toxic”; in the data set listed under Danio rerio [6], “Toxic”. Further, the residual activity worked out at 18% in data set [4] and 69% in data set [9].

Broadly, the IC50 is the concentration that inhibits the measured activity by half. The low end stands for greater potency in that assay, the high end for weaker potency in that assay. Broadly, the residual activity is the signal under treatment as a percentage of the control signal.
